This is an account of results in ChEMBL document CHEMBL3421607, “Design, synthesis and antibacterial activity of cinnamaldehyde derivatives as inhibitors of the bacterial cell division protein FtsZ” (Eur J Med Chem, 2015).

SMILES strings stand for the structures. ≈ marks a conversion by molar mass, not a printed value. Where only a bound is given, the exact number is not on record here.

Common to all, as to type: functional
The subject of assay [1] is Streptococcus pyogenes. Put plainly: Antibacterial activity against penicillin-susceptible Streptococcus pyogenes clinical isolates after 24 hrs by broth microdilution method.
For assay [2], the system named is Escherichia coli. Put plainly: microbe, parasite or virus in culture. Particulars: ATCC 25922, 24 h.
Description: Antibacterial activity against penicillin-susceptible Escherichia coli ATCC 25922 after 24 hrs by broth microdilution method
The subject of assay [3] is Staphylococcus aureus. Put plainly: Antibacterial activity against penicillin-resistant Staphylococcus aureus clinical isolates after 24 hrs by broth microdilution method. A general note: In broth dilution the organism is exposed to a series of concentrations in liquid medium.
The subject of assay [4] is Staphylococcus aureus. In words: microbe, parasite or virus in culture. The settings on record: ATCC 25923, 5 h.
Description: Inhibition of cell division in penicillin-susceptible Staphylococcus aureus ATCC 25923 assessed as ballooning after 5 hrs by phase contrast microscopy
In assay [5] the test system is Staphylococcus epidermidis. In words: Antibacterial activity against penicillin-resistant Staphylococcus epidermidis clinical isolates after 24 hrs by broth microdilution method.
Assay [6] relates to Streptococcus pyogenes. In words: Antibacterial activity against penicillin-resistant Streptococcus pyogenes clinical isolates after 24 hrs by broth microdilution method.
For assay [7], the system named is Staphylococcus aureus. Put plainly: microbe, parasite or virus in culture. Particulars: ATCC 29213, 24 h.
Description: Antibacterial activity against methicillin-resistant Staphylococcus aureus ATCC 29213 after 24 hrs by broth microdilution method
Assay [8] concerns Bacillus subtilis. Put plainly: microbe, parasite or virus in culture. Particulars: ATCC 9372, 5 h.
Description: Inhibition of cell division in penicillin-susceptible Bacillus subtilis ATCC 9372 assessed as filamentation after 5 hrs by phase contrast microscopy
Assay [9] concerns Pseudomonas aeruginosa. In words: microbe, parasite or virus in culture. The settings on record: ATCC 27853, 24 h.
Assay [10] relates to Staphylococcus aureus. In words: microbe, parasite or virus in culture. Particulars: ATCC 25923, 24 h.
Description: Antibacterial activity against penicillin-susceptible Staphylococcus aureus ATCC 25923 after 24 hrs by broth microdilution method
Assay [11] relates to Bacillus subtilis. Put plainly: microbe, parasite or virus in culture. Particulars: ATCC 9372, 24 h.
Description: Antibacterial activity against penicillin-susceptible Bacillus subtilis ATCC 9372 after 24 hrs by broth microdilution method
For assay [12], the system named is Escherichia coli. Put plainly: microbe, parasite or virus in culture. Particulars: ATCC 25922, 5 h.
Description: Inhibition of cell division in penicillin-susceptible Escherichia coli ATCC 25922 assessed as filamentation after 5 hrs by phase contrast microscopy
The test system of assay [13] is Pseudomonas aeruginosa. Put plainly: microbe, parasite or virus in culture. The settings on record: ATCC 27853, 5 h.
Description: Inhibition of cell division in penicillin-susceptible Pseudomonas aeruginosa ATCC 27853 assessed as filamentation after 5 hrs by phase contrast microscopy

Regarding `Cc1nc2ccccc2n1C(=O)/C=C/c1ccc([N+](=O)[O-])cc1`, the MIC was determined as 64 µg/mL (≈ 208 µM) in assay [1]; 128 µg/mL (≈ 417 µM) in assay [2]; 128 µg/mL (≈ 417 µM) in assay [3]; 0.5 µg/mL (≈ 1.63 µM) in assay [4]; 128 µg/mL (≈ 417 µM) in [5]; 16 µg/mL (≈ 52.1 µM) in [6]. In addition, the MIC in assay [7] is over 128 µg/mL; in assay [8] it was over 128 µg/mL; in assay [9] it was 128 µg/mL (≈ 417 µM); in assay [10] it was 16 µg/mL (≈ 52.1 µM); in assay [11], 128 µg/mL (≈ 417 µM); in assay [12], over 128 µg/mL. Moreover, the MIC in assay [13] was over 128 µg/mL.

On to `O=C(O)c1cn(C2CC2)c2cc(N3CCNCC3)c(F)cc2c1=O` [CIPROFLOXACIN], for which the MIC in assay [1] is 8 µg/mL (≈ 24.1 µM); in assay [3], 8 µg/mL (≈ 24.1 µM); in assay [4] it was over 128 µg/mL; in assay [5], over 128 µg/mL; in [6], over 128 µg/mL; in assay [7] it was 4 µg/mL (≈ 12.1 µM). Besides, the MIC in [8] is over 128 µg/mL; in assay [9] it was 4 µg/mL (≈ 12.1 µM); in assay [10], 8 µg/mL (≈ 24.1 µM); in assay [11] it was 8 µg/mL (≈ 24.1 µM); in [12], over 128 µg/mL; in [13] it was over 128 µg/mL.

For `CCCNC(=O)/C=C/c1ccc(Cl)cc1Cl` [3-(2,4-DICHLOROPHENYL)-N-PROPYLACRYLAMIDE], the MIC in assay [1] was 128 µg/mL (≈ 496 µM); in assay [2] it was 128 µg/mL (≈ 496 µM); in assay [3] it was over 128 µg/mL; in [4], 64 µg/mL (≈ 248 µM); in assay [5], over 128 µg/mL; in assay [6] it was over 128 µg/mL. The MIC was over 128 µg/mL in assay [7]; 32 µg/mL (≈ 124 µM) in [8]; 128 µg/mL (≈ 496 µM) in assay [9]; over 128 µg/mL in [10]; over 128 µg/mL in assay [11]; over 128 µg/mL in assay [12]. Further, the MIC in assay [13] is over 128 µg/mL.

As to `CCCCNC(=O)/C=C/c1ccc(Cl)cc1Cl` [N-BUTYL-3-(2,4-DICHLOROPHENYL)ACRYLAMIDE], the MIC in assay [1] was 64 µg/mL (≈ 235 µM); in assay [2], over 128 µg/mL; in assay [3], over 128 µg/mL; in assay [4] it was over 128 µg/mL; in assay [5], over 128 µg/mL; in assay [6], 128 µg/mL (≈ 470 µM). Moreover, the MIC was over 128 µg/mL in assay [7]; over 128 µg/mL in [8]; 128 µg/mL (≈ 470 µM) in [9]; over 128 µg/mL in assay [10]; over 128 µg/mL in assay [11]; over 128 µg/mL in assay [12]. In assay [13], this molecule yielded an MIC of over 128 µg/mL.

`COc1ccc(/C=C/C(=O)Nc2cccnc2)cc1`: the MIC in assay [1] is over 128 µg/mL; in [2], 128 µg/mL (≈ 503 µM); in assay [3], 64 µg/mL (≈ 252 µM); in assay [4] it was 4 µg/mL (≈ 15.7 µM); in [5], 128 µg/mL (≈ 503 µM); in assay [6] it was 128 µg/mL (≈ 503 µM). Moreover, the MIC in assay [7] was over 128 µg/mL; in assay [8], over 128 µg/mL; in [9] it was 128 µg/mL (≈ 503 µM); in assay [10], 32 µg/mL (≈ 126 µM); in assay [11] it was 128 µg/mL (≈ 503 µM); in assay [12], 128 µg/mL (≈ 503 µM). In [13], the MIC is 128 µg/mL (≈ 503 µM).

`CCN(CC)C(=O)/C=C/c1ccc(Cl)cc1Cl`: the MIC in assay [1] is 128 µg/mL (≈ 470 µM); in assay [2], over 128 µg/mL; in [3] it was over 128 µg/mL; in assay [4], 128 µg/mL (≈ 470 µM); in assay [5] it was 32 µg/mL (≈ 118 µM); in assay [6] it was 128 µg/mL (≈ 470 µM). Besides, the MIC was 128 µg/mL (≈ 470 µM) in [7]; over 128 µg/mL in assay [8]; 128 µg/mL (≈ 470 µM) in assay [9]; over 128 µg/mL in [10]; over 128 µg/mL in assay [11]; over 128 µg/mL in [12]. The molecule further came in with an MIC in assay [13] of over 128 µg/mL.

Take `COc1ccccc1/C=C/C(=O)n1c(C)nc2ccccc21`: the MIC is 128 µg/mL (≈ 438 µM) in assay [1]; 128 µg/mL (≈ 438 µM) in assay [2]; 64 µg/mL (≈ 219 µM) in [3]; over 128 µg/mL in assay [4]; 16 µg/mL (≈ 54.7 µM) in assay [5]; over 128 µg/mL in [6]. For the same molecule, the MIC in assay [7] is 128 µg/mL (≈ 438 µM); in assay [8], over 128 µg/mL; in assay [9], 128 µg/mL (≈ 438 µM); in assay [10] it was 64 µg/mL (≈ 219 µM); in [11] it was 128 µg/mL (≈ 438 µM); in [12], 128 µg/mL (≈ 438 µM). In addition, the MIC in assay [13] stood at 128 µg/mL (≈ 438 µM).

As to `Cc1nccn1-c1cc(NC(=O)/C=C/c2ccc([N+](=O)[O-])cc2)cc(C(F)(F)F)c1`, the MIC in assay [1] was 32 µg/mL (≈ 76.9 µM); in assay [2], over 128 µg/mL; in [3], over 128 µg/mL; in assay [4], 32 µg/mL (≈ 76.9 µM); in assay [5] it was over 128 µg/mL; in assay [6], 128 µg/mL (≈ 307 µM). Besides, the MIC was over 128 µg/mL in [7]; 128 µg/mL (≈ 307 µM) in assay [8]; over 128 µg/mL in [9]; 128 µg/mL (≈ 307 µM) in assay [10]; 128 µg/mL (≈ 307 µM) in [11]; over 128 µg/mL in assay [12]. Further, the MIC in [13] was 128 µg/mL (≈ 307 µM).

Consider `O=C(/C=C/c1ccc(Cl)cc1Cl)N1CCOCC1`, for which the MIC in assay [1] was over 128 µg/mL; in assay [2], 128 µg/mL (≈ 447 µM); in assay [3] it was over 128 µg/mL; in assay [4], over 128 µg/mL; in assay [5] it was 64 µg/mL (≈ 224 µM); in assay [6], 128 µg/mL (≈ 447 µM). The MIC was over 128 µg/mL in assay [7]; over 128 µg/mL in [8]; 128 µg/mL (≈ 447 µM) in assay [9]; over 128 µg/mL in assay [10]; over 128 µg/mL in assay [11]; over 128 µg/mL in [12]. The MIC in [13] is over 128 µg/mL.

Regarding `CCCCCCNC(=O)/C=C/c1ccc(Cl)cc1Cl`, the MIC in assay [1] is 128 µg/mL (≈ 426 µM); in [2], over 128 µg/mL; in assay [3], over 128 µg/mL; in assay [4], over 128 µg/mL; in [5], over 128 µg/mL; in assay [6] it was over 128 µg/mL. The MIC in assay [7] is over 128 µg/mL; in assay [8], 128 µg/mL (≈ 426 µM); in assay [9], over 128 µg/mL; in assay [10], over 128 µg/mL; in [11], over 128 µg/mL; in assay [12], over 128 µg/mL. Further, the MIC in assay [13] is over 128 µg/mL.

Consider `COc1ccc(/C=C/C(=O)n2c(C)nc3ccccc32)cc1OC`, for which the MIC in [1] was 64 µg/mL (≈ 199 µM); in assay [2] it was 128 µg/mL (≈ 397 µM); in assay [3], over 128 µg/mL; in [4] it was 64 µg/mL (≈ 199 µM); in assay [5], over 128 µg/mL; in assay [6], 64 µg/mL (≈ 199 µM). In addition, the MIC in [7] was over 128 µg/mL; in [8], over 128 µg/mL; in assay [9], 128 µg/mL (≈ 397 µM); in assay [10], over 128 µg/mL; in assay [11] it was over 128 µg/mL; in assay [12], 128 µg/mL (≈ 397 µM). Further, in assay [13], the MIC is over 128 µg/mL.

Consider `COc1ccc(NC(=O)/C=C/c2ccc(Cl)cc2Cl)cc1`, for which the MIC in assay [1] was 128 µg/mL (≈ 397 µM); in [2] it was over 128 µg/mL; in assay [3] it was over 128 µg/mL; in [4], over 128 µg/mL; in [5], over 128 µg/mL; in [6] it was 128 µg/mL (≈ 397 µM). Further, the MIC in [7], in [8], in [9], in assay [10], in [11] and in assay [12] was over 128 µg/mL throughout. Besides, in assay [13], the MIC was over 128 µg/mL.

As to `COc1cc(/C=C/C(=O)n2c(C)nc3ccccc32)cc(OC)c1OC`, the MIC is 128 µg/mL (≈ 363 µM) in [1]; 128 µg/mL (≈ 363 µM) in assay [2]; over 128 µg/mL in assay [3]; 64 µg/mL (≈ 182 µM) in [4]; 128 µg/mL (≈ 363 µM) in assay [5]; 128 µg/mL (≈ 363 µM) in assay [6]. Besides, the MIC in assay [7], in assay [8], in assay [9], in assay [10], in [11] and in assay [12] was over 128 µg/mL in each case. Moreover, the MIC in [13] is over 128 µg/mL.

In the case of `CC(C)NC(=O)/C=C/c1ccc(Cl)cc1Cl` [3-(2,4-DICHLOROPHENYL)-N-ISOPROPYLACRYLAMIDE], the MIC in assay [1] is 64 µg/mL (≈ 248 µM); in [2], 128 µg/mL (≈ 496 µM); in [3], over 128 µg/mL; in assay [4] it was 32 µg/mL (≈ 124 µM); in [5], over 128 µg/mL; in assay [6] it was over 128 µg/mL. The MIC in [7] is over 128 µg/mL; in assay [8], 32 µg/mL (≈ 124 µM); in assay [9] it was 128 µg/mL (≈ 496 µM); in assay [10] it was over 128 µg/mL; in assay [11] it was over 128 µg/mL; in [12], over 128 µg/mL. This molecule yielded an MIC in assay [13] of over 128 µg/mL.
